Active and inactive are the calls of the source.
Columns and labels:
[1] = molecular target: CAAX prenyl protease 1 (Saccharomyces cerevisiae S288c, UniProt P47154); assay: yeast CAAX protease Ste24 inhibition – biochemical, S. cerevisiae, plate reader, cherry-pick, dose response (AID 488815)
[2] = molecular target: Trypsin (Sus scrofa, UniProt P00761); assay: trypsin protease activity blockade – biochemical, quenched peptide fluorescence, cherry-pick, selectivity assay for Rce1 protease inhibitor project, dose response (AID 488789)
[3] = molecular target: T1, CAAX prenyl protease 2 (Saccharomyces cerevisiae S288c, UniProt Q03530); type: biochemical
T1 sequence (Q03530 whole entry): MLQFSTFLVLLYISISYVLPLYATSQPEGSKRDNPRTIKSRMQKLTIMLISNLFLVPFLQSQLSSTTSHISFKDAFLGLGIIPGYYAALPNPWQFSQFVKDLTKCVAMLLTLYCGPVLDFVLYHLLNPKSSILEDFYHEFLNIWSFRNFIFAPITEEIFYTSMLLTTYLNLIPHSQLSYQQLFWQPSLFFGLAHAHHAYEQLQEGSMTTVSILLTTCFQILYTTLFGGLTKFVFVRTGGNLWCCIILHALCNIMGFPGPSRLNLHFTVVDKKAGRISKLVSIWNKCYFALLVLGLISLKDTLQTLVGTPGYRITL

[4] = molecular target: T2, Tyrosine-protein phosphatase non-receptor type 7 (Homo sapiens, UniProt P35236); assay: redox-active compounds inhibiting HePTP phosphatase – biochemical, fluorescence, mechanism study (AID 2068); type: functional
T2 sequence (P35236 whole entry): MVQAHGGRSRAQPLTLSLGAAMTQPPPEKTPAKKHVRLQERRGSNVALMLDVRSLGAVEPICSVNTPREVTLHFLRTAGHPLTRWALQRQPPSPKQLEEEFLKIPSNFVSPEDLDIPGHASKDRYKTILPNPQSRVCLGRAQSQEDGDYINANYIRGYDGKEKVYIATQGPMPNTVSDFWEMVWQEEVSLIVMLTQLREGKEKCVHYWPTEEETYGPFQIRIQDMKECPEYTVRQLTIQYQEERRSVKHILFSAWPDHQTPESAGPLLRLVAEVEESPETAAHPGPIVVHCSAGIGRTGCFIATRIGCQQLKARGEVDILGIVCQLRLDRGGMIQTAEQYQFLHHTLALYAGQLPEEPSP

[5] = molecular target: T3, Dual specificity protein phosphatase 3 (Homo sapiens, UniProt P51452); assay: SAR VHR1 absorbance Assay for In Vitro dose response studies. [Related pubchem assays (depositor defined):AID1654, AID1661, AID1878, AID1992, AID2004]
[6] = molecular target: T3, Dual specificity protein phosphatase 3; assay: SAR VHR1 Fluorescent Assay for In Vitro dose response studies. [Related pubchem assays (depositor defined):AID1654, AID1661, AID1878, AID1992, AID2004, AID2070, AID2085]; type: functional
[7] = molecular target: Dual specificity protein phosphatase 6 (Rattus norvegicus, UniProt Q64346); type: functional;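 further: confirmatory in vitro dose-response testing of MKP-3 inhibition; recombinant His-tagged MKP-3 made in E. coli BL21 with OMFP substrate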
[8] = test system: INS1; assay: suppression of NO production in INS-1E cells – cell-based, Griess absorbance, dry powder, dose response (AID 488866); type: functional; conditions: Rattus norvegicus
[9] = test system: BJ; assay: BJ-TERT fibroblast viability loss – cell-based, RAS-independent, luminescence, dose response (AID 1933); type: functional; conditions: Homo sapiens
[10] = molecular target: Heat shock protein HSP 90-alpha (Homo sapiens, UniProt P07900); type: functional, organism-based
[11] = THP-1 cell cytotoxicity, dose response, cytotoxicity control for non-replicating M. tuberculosis project (AID 489025); type: functional
[12] = cells; type: functional, cell-based
[13] = Counterscreen for AddAB inhibitors: absorbance-based bacterial cell-based high throughput dose response assay for inhibitors of bacterial viability. [Related pubchem assays (depositor defined):AID435030, AID449728, AID449731, AID488942, AID488955, AID488956]; type: functional
[14] = test system: INS1; assay: INS-1E survival protection against cytokine death – cell-based, luminescence, retest, dose response (AID 449756); type: functional; conditions: Rattus norvegicus;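 further: cell death triggered by IL-1 beta plus TNF-alpha plus IFN-gamma mixture; protective hits raise ATP signal compared with cytokine alone wells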
[15] = molecular target: Intestinal-type alkaline phosphatase (Homo sapiens, UniProt P09923); assay: Dose Response confirmation of uHTS hits from a small molecule inhibitors of human intestinal alkaline phosphatase via a luminescent assay. [Related pubchem assays (depositor defined):AID2544, AID2574]; type: functional
[16] = cells; type: functional, cell-based; remark: listed apart in the source
[17] = luciferase reporter signal suppression in cells – H4 neuroglioma cells, luminescence, dose response (AID 1990); type: functional, cell-based
[18] = test system: BJ; assay: cells; type: functional, cell-based; conditions: Homo sapiens
[19] = DRD fibroblast viability loss – cell-based, non-viral oncogenic, luminescence, dose response (AID 1934); type: functional; conditions: Homo sapiens
[20] = Luminescence Cell-Based Dose Response HTS to Identify Inhibitors of 5'UTR Stem-Loop Driven Prion Protein mRNA Translation in H4 Neuroglioblastoma Cells. [Related pubchem assays: 1827 (Project Summary), 1813 (Primary HTS)]; type: functional
[21] = molecular target: Exodeoxyribonuclease V (Escherichia coli (strain K12), UniProt P04993+P07648+P08394); assay: RecBCD inhibition via phage-restricted bacterial growth – absorbance, V66 E. coli, mutant T4 phage, counter-screen for AddAB inhibitor project, dose response (AID 492957); type: functional, cell-based, Escherichia coli str. K-12 substr. MG1655
[22] = cells; type: functional
[23] = test system: BJ; assay: BJ-TERT-LT-ST fibroblast viability loss – cell-based, RAS-independent, luminescence, dose response (AID 1935); type: functional; conditions: Homo sapiens;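 further: BJ fibroblasts immortalized with TERT plus LT and ST oncogenes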
[24] = test system: HEK293; assay: EBV LMP1 TES2 canonical NF-kB signalling blockers – cell-based, HEK293, luciferase, cherry-pick, dose response (AID 588343); type: functional; conditions: Homo sapiens
[25] = test system: BJ; assay: growth inhibition of engineered Ras-driven BJ cells – cell-based, alamar blue fluorescence, cherrypicked samples, dose response (AID 2631); type: functional; conditions: Homo sapiens;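 further: confirmatory dose-response assay in RAS-dependent BJ fibroblasts engineered with TERT, LT and ST, with cytotoxicity read by fluorescence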
[26] = molecular target: Nonstructural protein 1 (Influenza A virus, UniProt Q194T2); type: functional, Influenza A virus (A/California/07/2009(H1N1))
[27] = alpha-synuclein stem-loop luciferase translation blockers – H4 neuroglioma cells, luminescence, confirmation (AID 1988); type: functional, cell-based

T3 sequence (P51452 whole entry): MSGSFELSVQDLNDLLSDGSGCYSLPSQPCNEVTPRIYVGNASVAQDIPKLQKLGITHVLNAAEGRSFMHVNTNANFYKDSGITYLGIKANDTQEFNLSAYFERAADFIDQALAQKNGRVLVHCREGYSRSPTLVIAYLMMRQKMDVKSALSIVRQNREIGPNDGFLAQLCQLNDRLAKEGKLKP
Sequence of CAAX prenyl protease 1 (P47154 whole entry): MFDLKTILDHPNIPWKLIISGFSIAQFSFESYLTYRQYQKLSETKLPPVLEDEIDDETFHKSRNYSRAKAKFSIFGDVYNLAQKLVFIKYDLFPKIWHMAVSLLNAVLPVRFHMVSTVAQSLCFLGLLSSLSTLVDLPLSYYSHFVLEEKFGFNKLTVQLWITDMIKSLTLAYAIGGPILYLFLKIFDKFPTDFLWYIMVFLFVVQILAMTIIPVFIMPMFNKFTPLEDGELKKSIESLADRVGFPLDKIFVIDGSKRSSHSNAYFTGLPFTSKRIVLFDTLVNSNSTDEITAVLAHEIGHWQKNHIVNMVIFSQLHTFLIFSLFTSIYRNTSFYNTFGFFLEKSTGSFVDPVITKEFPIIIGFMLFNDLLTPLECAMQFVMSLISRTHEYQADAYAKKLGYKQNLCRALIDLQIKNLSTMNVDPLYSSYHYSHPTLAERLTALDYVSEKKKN
Sequence of Intestinal-type alkaline phosphatase (P09923 whole entry): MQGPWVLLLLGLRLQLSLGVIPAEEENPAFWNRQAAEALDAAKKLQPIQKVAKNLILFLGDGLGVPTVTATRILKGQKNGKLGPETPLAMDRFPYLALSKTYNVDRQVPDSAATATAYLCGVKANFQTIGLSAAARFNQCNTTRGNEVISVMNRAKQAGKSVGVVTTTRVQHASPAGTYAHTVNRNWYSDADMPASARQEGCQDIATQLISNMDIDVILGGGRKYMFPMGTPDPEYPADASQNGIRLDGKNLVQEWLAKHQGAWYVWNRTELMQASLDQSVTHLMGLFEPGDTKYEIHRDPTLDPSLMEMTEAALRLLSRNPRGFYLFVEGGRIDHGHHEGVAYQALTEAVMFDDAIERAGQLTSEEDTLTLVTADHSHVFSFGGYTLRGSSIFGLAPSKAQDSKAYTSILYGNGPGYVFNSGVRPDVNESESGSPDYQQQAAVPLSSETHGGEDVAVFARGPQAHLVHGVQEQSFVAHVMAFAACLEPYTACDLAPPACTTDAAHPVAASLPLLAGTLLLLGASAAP
Sequence of Nonstructural protein 1 (Q194T2 whole entry): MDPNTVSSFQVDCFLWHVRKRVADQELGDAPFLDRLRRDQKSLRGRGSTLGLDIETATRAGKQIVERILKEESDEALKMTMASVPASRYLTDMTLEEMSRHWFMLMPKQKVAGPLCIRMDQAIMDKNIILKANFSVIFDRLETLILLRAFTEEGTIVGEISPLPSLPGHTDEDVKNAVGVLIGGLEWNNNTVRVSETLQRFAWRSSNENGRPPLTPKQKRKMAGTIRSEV
Sequence of Exodeoxyribonuclease V (P04993 whole entry): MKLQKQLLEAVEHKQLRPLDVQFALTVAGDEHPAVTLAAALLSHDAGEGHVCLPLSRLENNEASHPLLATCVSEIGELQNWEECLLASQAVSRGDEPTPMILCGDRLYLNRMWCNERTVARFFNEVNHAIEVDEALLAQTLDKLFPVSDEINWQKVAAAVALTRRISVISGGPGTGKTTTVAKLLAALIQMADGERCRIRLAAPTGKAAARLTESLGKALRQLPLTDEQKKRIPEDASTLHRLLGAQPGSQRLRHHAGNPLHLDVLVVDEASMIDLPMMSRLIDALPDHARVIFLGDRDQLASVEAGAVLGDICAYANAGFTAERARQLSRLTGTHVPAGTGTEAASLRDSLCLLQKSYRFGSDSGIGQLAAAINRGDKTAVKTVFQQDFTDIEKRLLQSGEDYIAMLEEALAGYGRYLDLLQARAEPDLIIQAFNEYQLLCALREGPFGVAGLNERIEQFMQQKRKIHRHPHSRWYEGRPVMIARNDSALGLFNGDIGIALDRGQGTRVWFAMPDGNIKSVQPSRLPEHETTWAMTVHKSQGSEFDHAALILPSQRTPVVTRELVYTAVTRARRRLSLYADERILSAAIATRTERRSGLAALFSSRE
Sequence of Exodeoxyribonuclease V (P07648 whole entry): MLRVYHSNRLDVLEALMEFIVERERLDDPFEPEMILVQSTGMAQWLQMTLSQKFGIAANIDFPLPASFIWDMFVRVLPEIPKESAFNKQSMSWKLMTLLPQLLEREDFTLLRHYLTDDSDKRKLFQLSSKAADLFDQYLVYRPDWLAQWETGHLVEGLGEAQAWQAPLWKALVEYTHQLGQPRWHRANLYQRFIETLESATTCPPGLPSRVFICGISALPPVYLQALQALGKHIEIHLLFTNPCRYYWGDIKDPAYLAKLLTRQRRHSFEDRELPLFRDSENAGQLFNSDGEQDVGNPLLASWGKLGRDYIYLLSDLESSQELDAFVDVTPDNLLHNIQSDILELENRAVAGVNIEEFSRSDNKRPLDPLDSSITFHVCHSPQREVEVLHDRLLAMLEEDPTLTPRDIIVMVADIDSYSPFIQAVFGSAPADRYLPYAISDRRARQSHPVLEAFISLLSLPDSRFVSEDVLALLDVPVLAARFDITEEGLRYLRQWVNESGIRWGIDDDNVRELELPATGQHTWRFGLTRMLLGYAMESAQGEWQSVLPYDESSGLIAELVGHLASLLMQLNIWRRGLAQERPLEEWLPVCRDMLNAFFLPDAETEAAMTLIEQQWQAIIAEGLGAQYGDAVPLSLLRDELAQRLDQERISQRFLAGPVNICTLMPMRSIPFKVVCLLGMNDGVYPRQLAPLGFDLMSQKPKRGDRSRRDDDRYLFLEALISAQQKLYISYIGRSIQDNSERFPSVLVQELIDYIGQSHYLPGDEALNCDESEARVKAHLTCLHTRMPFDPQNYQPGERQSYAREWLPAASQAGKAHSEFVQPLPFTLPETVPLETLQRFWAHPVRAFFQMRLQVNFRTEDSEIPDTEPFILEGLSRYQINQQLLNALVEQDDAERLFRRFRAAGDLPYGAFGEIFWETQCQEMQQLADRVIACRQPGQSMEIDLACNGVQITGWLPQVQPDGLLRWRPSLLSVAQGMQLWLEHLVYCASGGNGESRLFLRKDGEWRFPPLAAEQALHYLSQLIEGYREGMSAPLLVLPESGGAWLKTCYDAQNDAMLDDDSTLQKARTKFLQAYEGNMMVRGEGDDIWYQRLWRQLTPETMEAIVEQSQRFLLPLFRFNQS
Sequence of Exodeoxyribonuclease V (P08394 whole entry): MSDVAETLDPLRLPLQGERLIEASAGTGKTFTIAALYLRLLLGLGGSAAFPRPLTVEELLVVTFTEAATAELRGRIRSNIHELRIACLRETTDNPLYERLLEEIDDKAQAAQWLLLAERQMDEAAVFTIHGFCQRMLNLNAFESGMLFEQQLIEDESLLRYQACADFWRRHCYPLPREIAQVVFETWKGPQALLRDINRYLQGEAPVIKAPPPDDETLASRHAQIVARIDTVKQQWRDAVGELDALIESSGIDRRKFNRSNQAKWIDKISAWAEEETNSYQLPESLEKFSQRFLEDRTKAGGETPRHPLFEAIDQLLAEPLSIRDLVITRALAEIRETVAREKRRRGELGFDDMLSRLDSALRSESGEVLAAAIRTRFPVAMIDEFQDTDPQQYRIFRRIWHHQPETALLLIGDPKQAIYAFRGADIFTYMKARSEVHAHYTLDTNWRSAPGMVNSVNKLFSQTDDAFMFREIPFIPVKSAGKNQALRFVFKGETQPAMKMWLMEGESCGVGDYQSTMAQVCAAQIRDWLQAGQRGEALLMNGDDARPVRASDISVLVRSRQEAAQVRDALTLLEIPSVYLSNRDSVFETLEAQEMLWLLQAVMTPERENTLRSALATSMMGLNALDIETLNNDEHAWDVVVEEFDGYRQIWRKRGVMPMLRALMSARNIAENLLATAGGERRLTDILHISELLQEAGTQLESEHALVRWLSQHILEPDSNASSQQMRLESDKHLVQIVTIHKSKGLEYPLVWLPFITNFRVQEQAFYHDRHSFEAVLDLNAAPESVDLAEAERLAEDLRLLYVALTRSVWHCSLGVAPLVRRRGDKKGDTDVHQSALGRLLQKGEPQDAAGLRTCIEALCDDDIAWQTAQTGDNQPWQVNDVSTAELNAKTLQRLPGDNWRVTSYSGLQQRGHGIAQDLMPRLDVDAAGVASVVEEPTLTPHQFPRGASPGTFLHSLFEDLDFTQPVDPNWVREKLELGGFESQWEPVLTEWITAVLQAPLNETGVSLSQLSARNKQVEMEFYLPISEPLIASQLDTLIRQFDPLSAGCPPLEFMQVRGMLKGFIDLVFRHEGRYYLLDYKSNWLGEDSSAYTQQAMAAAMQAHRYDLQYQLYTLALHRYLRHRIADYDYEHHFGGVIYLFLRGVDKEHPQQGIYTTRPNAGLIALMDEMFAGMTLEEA
Sequence of Dual specificity protein phosphatase 6 (Q64346 whole entry): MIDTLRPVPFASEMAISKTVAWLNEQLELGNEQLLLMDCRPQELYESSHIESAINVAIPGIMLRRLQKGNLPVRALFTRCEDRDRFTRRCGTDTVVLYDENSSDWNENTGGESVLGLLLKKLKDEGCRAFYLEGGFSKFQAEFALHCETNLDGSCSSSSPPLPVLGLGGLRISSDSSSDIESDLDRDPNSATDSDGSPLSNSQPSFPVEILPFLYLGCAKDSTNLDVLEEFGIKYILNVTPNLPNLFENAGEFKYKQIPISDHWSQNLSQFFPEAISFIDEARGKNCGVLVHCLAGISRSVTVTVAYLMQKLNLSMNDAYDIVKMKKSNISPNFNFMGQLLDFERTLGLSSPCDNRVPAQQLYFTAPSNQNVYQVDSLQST
Sequence of Trypsin (P00761 whole entry): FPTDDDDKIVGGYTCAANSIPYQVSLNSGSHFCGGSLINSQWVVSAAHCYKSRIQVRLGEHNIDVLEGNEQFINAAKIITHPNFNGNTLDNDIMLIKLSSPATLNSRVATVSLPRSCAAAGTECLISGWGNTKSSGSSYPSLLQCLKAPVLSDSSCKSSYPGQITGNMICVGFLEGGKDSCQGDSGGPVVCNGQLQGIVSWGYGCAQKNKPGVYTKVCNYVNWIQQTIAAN

## COc1ccccc1-c1coc2c(CN3CCN(C)CC3)c(O)ccc2c1=O
[1]
  AC50: 1.57 µM (active)
[2]
  AC50: 28.3 µM (active)
[3]
  AC50: 97.9 µM (active)

## S=C(NC1CCCCC1)c1cn(CCOc2ccccc2)c2ccccc12
[4]
  IC50: > 100 µM (inactive)
[5]
  IC50: > 100 µM (inactive)
[6]
  IC50: > 100 µM (inactive)
[7]
  IC50: > 100 µM (inactive)

## COc1ccc(S(=O)(=O)N(C)C[C@@H]2Oc3c(NC(=O)NC4CCCc5ccccc54)cccc3C(=O)N([C@@H](C)CO)C[C@H]2C)cc1 (some centres not stated)
[8]
  AC50: 124 µM (active)

## Cn1nnnc1N=N/C(=N/Nc1ccccc1)c1ccccc1
[9]
  EC50: 5.67 µM (active)
[10]
  AC50: 3.55 µM (active)
[11]
  CC50: < 0.078 µM (active)
[12]
  EC50: > 350 µM (not active)
[13]
  IC50: > 119 µM (inactive)
[14]
  AC50: 0.408 µM (active)
[15]
  IC50: > 100 µM (inactive)
[16]
  EC50: 8.13 µM (active)
[17]
  EC50: > 120 µM (not active)
[18]
  EC50: 2.17 µM (active)
[19]
  EC50: 7.59 µM (inconclusive)
[20]
  EC50: > 120 µM (not active)
[21]
  IC50: > 119 µM (inactive)
[22]
  IC50: 26.6 µM (active)
[23]
  EC50: 4.63 µM (inconclusive)
[24]
  AC50: 2.69 µM (active)
[25]
  EC50: 0.627 µM (inconclusive)
[26]
  IC50: 26.5 µM (active)
[27]
  EC50: 8.09 µM (active)
